Read-outs that look alike come from different tables or passages of the source. One block for each molecule: values may come before it. Starred links: 1 amine or outer side, 2 acyl side, 3 side chain; linkers in the order of their positions; H or OH if unused. Non-standard residues stand in square brackets, D forms with d. Residues, ends and D or L forms follow the SMILES beside them. ξ: configuration not given here. *: point of attachment. dBip = N[C@H](Cc1ccc(-c2ccccc2)cc1)C(=O)O; Oic = O=C(O)[C@@H]1C[C@@H]2CCCC[C@@H]2N1; Phe(4-Cl) = N[C@@H](Cc1ccc(Cl)cc1)C(=O)O; Phe(4-I) = N[C@@H](Cc1ccc(I)cc1)C(=O)O; γGlu = O=C(O)[C@H](CCC(=O)[*:2])N[*:1]; d(β3hF) = N[C@@H](CC(=O)O)Cc1ccccc1; NMeR = CN[C@@H](CCCNC(=N)N)C(=O)O; Palmitoyl = CCCCCCCCCCCCCCCC(=O)*; Tridecanoyl = CCCCCCCCCCCCC(=O)*; hArg = N=C(N)NCCCC[C@H](N)C(=O)O; β3hF = N[C@H](CC(=O)O)Cc1ccccc1; Cha = N[C@@H](CC1CCCCC1)C(=O)O; NMeL = CN[C@@H](CC(C)C)C(=O)O; αMeL = CC(C)C[C@](C)(N)C(=O)O; αMeP = C[C@@]1(C(=O)O)CCCN1; ξαMeL = CC(C)CC(C)(N)C(=O)O; Nle = CCCC[C@H](N)C(=O)O; ξβ3hV = CC(C)C(N)CC(=O)O; 3TP = not defined here; AEEA = NCCOCCOCC(=O)O
Assays:
[1] = In vivo pharmacokinetics in rat; set-up: species or system Sprague-Dawley rats; conditions: for AUC(0-inf) / half-life: rat, in vivo, sc
Protocol: Evaluation of the in vivo pharmacokinetic profile of several pegylated and lipidated apelin polypeptides in rat was undertaken (FIGS. 9 and 10A-B). The apelin polypeptides were administered to Sprague-Dawley rats through subcutaneous (SC) administration and the pharmacokinetic profile for each polypeptide was subsequently evaluated. […] Blood samples collected over a 24 hr period were transferred into collection tubes containing potassium EDTA and stored on ice until processed. Plasma was obtained from blood by centrifugation. After transfer into a 96-well container, plasma samples were stored in a freezer maintained at approximately −80° C. Quantitative analysis of the apelin polypeptide in rat plasma samples was achieved using multiple reaction monitor (MRM) mode on a LC-MS/MS system.

human APJ receptor = target: T1, human APJ receptor (Homo sapiens, UniProt P35414); experiment: [35S] GTPγS assay, human APJ receptor; format: biochemical
T1 construct: expressed in transfected cells
T1 sequence (P35414 1-380): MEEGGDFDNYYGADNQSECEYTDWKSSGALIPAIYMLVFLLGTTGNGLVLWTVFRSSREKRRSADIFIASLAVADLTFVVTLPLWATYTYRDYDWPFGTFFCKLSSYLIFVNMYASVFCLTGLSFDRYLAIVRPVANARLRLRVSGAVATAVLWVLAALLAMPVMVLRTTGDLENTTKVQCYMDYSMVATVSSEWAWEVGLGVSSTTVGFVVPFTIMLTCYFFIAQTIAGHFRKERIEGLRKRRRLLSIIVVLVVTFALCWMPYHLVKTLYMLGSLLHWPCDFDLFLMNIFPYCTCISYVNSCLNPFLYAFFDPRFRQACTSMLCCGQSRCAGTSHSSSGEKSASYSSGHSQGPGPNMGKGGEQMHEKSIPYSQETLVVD

rat APJ receptor = target: T2, rat APJ receptor (Rattus norvegicus, UniProt Q9JHG3); experiment: [35S] GTPγS assay, rat APJ receptor; format: biochemical
T2 construct: expressed in transfected cells
T2 sequence (Q9JHG3 1-377): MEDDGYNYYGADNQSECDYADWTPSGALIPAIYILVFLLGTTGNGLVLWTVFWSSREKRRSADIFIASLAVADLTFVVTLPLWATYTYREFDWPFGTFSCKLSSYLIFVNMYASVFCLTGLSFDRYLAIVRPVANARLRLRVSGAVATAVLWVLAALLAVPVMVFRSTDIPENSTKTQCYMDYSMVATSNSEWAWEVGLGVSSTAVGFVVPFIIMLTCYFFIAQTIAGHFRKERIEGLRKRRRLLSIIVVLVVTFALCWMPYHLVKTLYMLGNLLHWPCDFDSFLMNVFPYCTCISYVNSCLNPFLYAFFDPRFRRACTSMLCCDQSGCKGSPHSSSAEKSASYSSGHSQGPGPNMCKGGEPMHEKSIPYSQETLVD
Protocol: The membranes were incubated with modified peptides in the assay buffer. […] Bound [^35S] GTPγS was separated from free radiolabel by filtration. The filter bound radioactivity was determined by liquid scintillation counting.

[2] = In vitro stability in rat plasma; format: in vitro ADME
In short: (§1)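 Apelin peptides spiked to 5 μM final into rat plasma, liver homogenate or kidney homogenate and incubated at 37° C. for up to 4 hr. Aliquots quenched with MeOH containing internal standard, centrifuged, and supernatants analysed by high-resolution LC-MS.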

[3] = In vitro stability in rat liver homogenate; format: in vitro ADME; conditions: tissue homogenate
In short: as §1

[4] = In vitro stability in rat kidney homogenate; format: in vitro ADME; conditions: rat, tissue homogenate
In short: as §1

rat plasma = conditions: 37° C., up to 4 hr
[5] = rat APJ receptor, read-out: EC50 Rat APJ Receptor

Molecule: CCCCCCCCCCCCC(=O)N[C@@H](CCC(=O)NCCOCCOCC(=O)NCCOCCOCC(=O)N[C@@H](CCC(N)=O)C(=O)N[C@@H](CCCNC(=N)N)C(=O)N1CCC[C@H]1C(=O)N(C)[C@@H](CCCNC(=N)N)C(=O)N[C@@H](CC1CCCCC1)C(=O)N[C@@H](CO)C(=O)N[C@@H](Cc1c[nH]cn1)C(=O)N[C@@H](CCCCN)C(=O)NCC(=O)N1[C@H](C(=O)N[C@@H](CCCC)C(=O)N2CCC[C@H]2C(=O)N[C@H](CC(=O)O)Cc2ccccc2)C[C@@H]2CCCC[C@@H]21)C(=O)O [Peptide 379] ({Tridecanoyl-γGlu-AEEA-AEEA}-QRP[NMeR][Cha]SHKG[Oic][Nle]P[β3hF]-OH)
AUC(0-inf) ([1]; 0.1 mg/kg): 0.145 µM·h
half-life ([1]; 0.1 mg/kg): 15.7 min

Molecule: {H2}[3TP](20K-mPEGReg)[hArg]rQ[hArg]Pr[NMeLeu]SHKG[Oic][pI-Phe]P[D-Bip]{COOH} ({20K‑mPEGReg-3TP}-[hArg][dR]Q[hArg]P[dR][NMeL]SHKG[Oic][Phe(4-I)]P[dBip]-OH; reading uncertain) [SEQ ID NO: 103]
plasma concentration in rat ([1]; 20 kDa PEGylated peptides, FIG. 9, 1/10th the dose of the others): high plasma concentrations

Molecule: {Palm} [AC4Abu] [Aeea] [Aeea] q R P [NMeArg] [Cha] S H K G [Oic] [Nle] [Aib] [D-BhPhe] {COOH}
not cleaved (rat plasma): >90.0 % remaining at 4 hours

Molecule: {Palm} [AC4Abu] [Aeea] [Aeea] q R P [NMeArg] [Cha] S H K G [Oic] [Nle] [BhPro] [D-BhPhe] {COOH}
not cleaved (rat plasma): >90.0 % remaining at 4 hours

Molecule: {Palm} [AC4Abu] [Aeea] [Aeea] q R P [NMeArg] [Cha] S H K G [Oic] [Nle] [Inp] [4-Cl-F] {COOH}
not cleaved (rat plasma): >90.0 % remaining at 4 hours

Molecule: {Palm} [AC4Abu] [Aeea] [Aeea] q R P [NMeArg] [Cha] S H K G [Oic] [Nle] [aMePro] [D-BhPhe] {COOH}
not cleaved (rat plasma): >90.0 % remaining at 4 hours

Molecule: {Palm} [AC4Abu] [Aeea] [Aeea] q R P [NMeArg] [Cha] S H K G [Pip] [Nle] [Nip] [4-Cl-F] {COOH}
not cleaved (rat plasma): >90.0 % remaining at 4 hours

Molecule: {Palm} [AC4Abu] [Aeea] [Aeea] q [hArg] P r [Cha] S H K G [Oic] [Nle] P [D-BhPhe] {COOH}
not cleaved (rat plasma): 90 % remaining at 4 hours

Molecule: {hexanoyl} [AC4Abu] [Aeea] [Aeea] Q R P [NMeArg] [Cha] S H K G [Oic] [Nle] [Aib] [4-Cl-F] {COOH}
not cleaved (rat plasma): >90.0 % remaining at 4 hours

Continued, in another order:

EC50 (human APJ receptor; human APJ receptor): 0.159 nM
EC50 (rat APJ receptor; [5]): 0.189 nM
remaining at 4 h, 5 μM [2]: 27.9%
remaining at 4 h, 5 μM [3]: < 1%
remaining at 4 h, 5 μM [4]: 7.58%
Molecule: CCCC[C@H](NC(=O)[C@@H]1C[C@@H]2CCCC[C@@H]2N1C(=O)CNC(=O)[C@H](CCCCN)NC(=O)[C@H](Cc1c[nH]cn1)NC(=O)[C@H](CO)NC(=O)[C@H](CC1CCCCC1)NC(=O)[C@H](CCCNC(=N)N)N(C)C(=O)[C@@H]1CCCN1C(=O)[C@H](CCCCNC(=N)N)NC(=O)[C@H](CCC(N)=O)NC(C)=O)C(=O)N1CCC[C@H]1C(=O)N[C@@H](Cc1ccc(Cl)cc1)C(=O)O [compound 61] (Ac-Q[hArg]P[NMeR][Cha]SHKG[Oic][Nle]P[Phe(4-Cl)]-OH)

EC50 (human APJ receptor; human APJ receptor): 0.305 nM
EC50 (rat APJ receptor; [5]): 0.503 nM
remaining at 4 h, 5 μM [2]: 66%
remaining at 4 h, 5 μM [3]: 11%
remaining at 4 h, 5 μM [4]: 89%
Molecule: CCCCCCCCCCCCC(=O)N[C@@H](CCC(=O)NCCOCCOCC(=O)NCCOCCOCC(=O)NC(CC(=O)N[C@@H](CCCNC(=N)N)C(=O)N1CCC[C@H]1C(=O)N(C)[C@@H](CCCNC(=N)N)C(=O)NC(C)(CC(C)C)C(=O)N[C@@H](CO)C(=O)N[C@@H](Cc1c[nH]cn1)C(=O)N[C@@H](CCCCN)C(=O)NCC(=O)N1[C@H](C(=O)N[C@@H](CCCC)C(=O)N2CCC[C@H]2C(=O)N[C@@H](Cc2ccc(Cl)cc2)C(=O)O)C[C@@H]2CCCC[C@@H]21)C(C)C)C(=O)O (stereo partly drawn) [compound 374] ({Tridecanoyl-γGlu-AEEA-AEEA}-[ξβ3hV]RP[NMeR][ξαMeL]SHKG[Oic][Nle]P[Phe(4-Cl)]-OH)

remaining at 4 h, 5 μM [2]: 83%
remaining at 4 h, 5 μM [3]: 10%
remaining at 4 h, 5 μM [4]: 13%
Molecule: CCCCCCCCCCCCC(=O)N[C@@H](CCC(=O)NCCOCCOCC(=O)NCCOCCOCC(=O)N[C@@H](CCC(N)=O)C(=O)N[C@@H](CCCNC(=N)N)C(=O)N1CCC[C@H]1C(=O)N(C)[C@@H](CCCNC(=N)N)C(=O)N[C@@](C)(CC(C)C)C(=O)N[C@@H](CO)C(=O)N[C@@H](Cc1c[nH]cn1)C(=O)N[C@@H](CCCCN)C(=O)NCC(=O)N1[C@H](C(=O)N[C@@H](CCCC)C(=O)N2CCC[C@@]2(C)C(=O)N[C@@H](Cc2ccc(Cl)cc2)C(=O)O)C[C@@H]2CCCC[C@@H]21)C(=O)O [compound 376] ({Tridecanoyl-γGlu-AEEA-AEEA}-QRP[NMeR][αMeL]SHKG[Oic][Nle][αMeP][Phe(4-Cl)]-OH)
AUC(0-inf) ([1]; Sprague-Dawley, 0.5 mg/kg): 0.09 µM·h
half-life ([1]; Sprague-Dawley, 0.5 mg/kg): 88.8 min

EC50 (human APJ receptor; Table 16): 0.147 nM
EC50 (rat APJ receptor; Table 16, read-out: EC50 Rat APJ Receptor): 0.253 nM
remaining at 4 h, 5 μM [2]: > 90%
remaining at 4 h, 5 μM [3]: < 1%
remaining at 4 h, 5 μM [4]: 8%
Molecule: CCCCCCCCCCCCC(=O)N[C@@H](CCC(=O)NCCOCCOCC(=O)NCCOCCOCC(=O)N[C@@H](CCC(N)=O)C(=O)N[C@@H](CCCNC(=N)N)C(=O)N1CCC[C@H]1C(=O)N(C)[C@@H](CCCNC(=N)N)C(=O)N[C@@H](CC1CCCCC1)C(=O)N[C@@H](CO)C(=O)N[C@@H](Cc1c[nH]cn1)C(=O)N[C@@H](CCCCN)C(=O)NCC(=O)N1CCC[C@@]1(C)C(=O)N[C@@H](CCCC)C(=O)N1CCC[C@H]1C(=O)N[C@@H](Cc1ccc(Cl)cc1)C(=O)O)C(=O)O [compound 418] ({Tridecanoyl-γGlu-AEEA-AEEA}-QRP[NMeR][Cha]SHKG[αMeP][Nle]P[Phe(4-Cl)]-OH)

EC50 (human APJ receptor; human APJ receptor): 1.25 nM
EC50 (rat APJ receptor; [5]): 10.3 nM
remaining at 4 h, 5 μM [2]: 90%
remaining at 4 h, 5 μM [3]: 11%
remaining at 4 h, 5 μM [4]: 9%
Molecule: CCCCCCCCCCCCCCCC(=O)N[C@@H](CCC(=O)NCCOCCOCC(=O)NCCOCCOCC(=O)N[C@H](CCC(N)=O)C(=O)N[C@@H](CCCCNC(=N)N)C(=O)N1CCC[C@H]1C(=O)N[C@H](CCCNC(=N)N)C(=O)N[C@@H](CC1CCCCC1)C(=O)N[C@@H](CO)C(=O)N[C@@H](Cc1c[nH]cn1)C(=O)N[C@@H](CCCCN)C(=O)NCC(=O)N1[C@H](C(=O)N[C@@H](CCCC)C(=O)N2CCC[C@H]2C(=O)N[C@@H](CC(=O)O)Cc2ccccc2)C[C@@H]2CCCC[C@@H]21)C(=O)O [compound 614] ({Palmitoyl-γGlu-AEEA-AEEA}-[dQ][hArg]P[dR][Cha]SHKG[Oic][Nle]P[d(β3hF)]-OH)

not cleaved (rat plasma): >90.0 % remaining at 4 hours
Molecule: {Acetyl-NH} E r Q [hArg] P r [NMeLeu] S H K G [Oic] [pI-Phe] P [D-Bip] {COOH}

not cleaved (rat plasma): >90.0 % remaining at 4 hours
Molecule: {Acetyl-NH} [hArg] E Q [hArg] P r [NMeLeu] S H K G [Oic] [pI-Phe] P [D-Bip] {COOH}

not cleaved (rat plasma): >90.0 % remaining at 4 hours
Molecule: {Acetyl-NH} [hArg] r Q [hArg] P E [NMeLeu] S H K G [Oic] [pI-Phe] P [D-Bip] {COOH}

not cleaved (rat plasma): >90.0 % remaining at 4 hours
Molecule: {PDA}[AC4Abu][Aeea][Aeea][hArg]rQ[hArg]Pr[NMeLeu]SHKG[Oic][pI-Phe]P[D-Bip]{COOH}

not cleaved (rat plasma): >90.0 % remaining at 4 hours
Molecule: {TDA}[AC4Abu][Aeea][Aeea][hArg]rQ[hArg]Pr[NMeLeu]SHKG[Oic][pI-Phe]P[D-Bip]{COOH}

Reference: patent US11807693B2 (priority 2014, dated 2023)
